Results published in patent publication US12545695B2, “Compounds for inhibiting neovascularization factors and use thereof” (UNIST (ULSAN NATIONAL INSTITUTE OF SCIENCE AND TECHNOLOGY), priority 2019, dated 2026).

Tests used:
TRAP-1 [1] = test: Pull-down assay: client proteins SIRT3 and SDHB on GST-TRAP1 beads; format: binding; conditions: TRAP1-bead form with isolated mitochondria and drug, 4° C., 18 hours (FIG. 14)
Method: A pull-down assay was performed to confirm whether SMx competitively binds to SIRT3 and SDHB, which are known as client proteins of TRAP-1. TRAP1 protein in the GST fusion form was purified from bacteria cells and then bound to glutathione beads to make a TRAP1-bead form, and then the TRAP1-bead form was bound to the mitochondria isolated from mammalian cells (Thermo Scientific mitochondria isolation kit) with a drug at 4° C. for 18 hours. The cells were treated with SMx, and gamitrinib and PU-H71, which are previously developed N-terminal domain inhibitors of hsp90s, as the drugs, according to the concentrations shown in the drawing. […] This is strong evidence that SMx has the ability to bind to the middle domain of TRAP-1.

TRAP-1 [2] = test: ATPase activity assay (PiColorLock Gold Phosphate Detection Kit); format: biochemical; conditions: TRAP1 0.5 μM, 0.2 mM ATP, inhibitor 0.520 μM preincubated 30 minutes (FIG. 16)
Method: ATPase activity was measured by measuring the release of inorganic phosphates through the PiColorLock Gold Phosphate Detection Kit (Innova Biosciences) according to the manufacturer's manual. TRAP1 (0.5 μM) was cultured with 0.2 mM ATP in 100 mM Tris, 20 mM KCl, and 6 mM MgCl2 under the conditions of pH 7.0 and 37° C. for 3 hours. Thereafter, the PiColorLock Gold reagent and an accelerator (100:1) were added to a 100 μL ATP hydrolyzate sample. After culturing at 25° C. for 5 minutes, the change in color was stopped by adding 10 μL of a stop solution thereto, and the absorbance at 620 nm was measured by SYNERGY NEO microplate reader (BioTek Instruments).
For inhibitory ability analysis, TRAP1 was cultured with a predetermined concentration (0.520 μM) of inhibitor for 30 minutes and then stirred with ATP. Absorbance values were normalized to a DMSO control and data was expressed as % ATPase activity.
For inhibitory ability analysis, TRAP-1 was cultured with a predetermined concentration (0.520 μM) of inhibitor for 30 minutes and then stirred with ATP. Absorbance values were normalized to a DMSO control and data was expressed as % ATPase activity.

Compound | binding of the client protein (SIRT3, SDHB) to TRAP-1 (TRAP-1 [1]) | ATPase activity of TRAP-1 (TRAP-1 [2])
gamitrinib | not significantly changed | –
CC(C)NCCCn1c(Sc2cc3c(cc2I)OCO3)nc2c(N)ncnc21 [PU-H71] | not significantly changed | significantly decreased according to the concentration
